Data as given in patent US20180271847A1, “TREATMENT OF ACUTE TRAUMATIC INJURY” (priority 2015, published 2018).

Experiments:
[1] = tested on: contusion injuries to the spinal cord; test: Behavioral analysis of motor function after spinal cord contusion injury; format: in vivo, Long Evans rats; conditions: rats
Experimental: Experiments were initiated with behavioral analysis of rats receiving contusion injuries to the spinal cord, which is one of the most widely studied of all experimental models of traumatic injury. 8-10 week old Long Evans rats (female) underwent laminectomy at thoracic vertebrae 9 and a 200 kilodyne impact was delivered to the spinal cord using an the Infinite Horizons impactor. Animals were allowed to recover on a heated pad and then treatment was started 24 hours after surgery in order to determine whether a clinically useful window of opportunity for initiation of treatment exists for use of this intervention. Animals received 1 mg/kg 4-AP twice a day for seven days, then received 1 mg/kg 4-AP […] for the following seven days. After two weeks, the animals were taken off 4-AP entirely and allowed to continue for 2 weeks to test for stability of recovery.
FIGS. 1-4 provide evidence of enhanced recovery of a variety of aspects of motor function. […] Of particular interest were observations that when rats were switched to once-a-day administration of 4-AP and all behavioral analyses were conducted at a time point when the 4-AP half-life in rats predicts that levels in vivo were far below those necessary to observe any effects on motor function, recovery of function was still seen at a time when active levels of 4-AP would not have been present. […] FIG. 2 provides information on the speed of the paw during its swing movement (i.e., stride length/swing time). […] FIG. 3 provides information on the distance between the outer toes (i.e., toe spread), a sensitive indicator of normal motor function in the foot itself. […] In contrast, rats treated with 4-AP show normal behavior beginning 10 days post-injury, and this behavior is maintained when drug treatment ends at day 14. FIG. 4 provides information on the length of the foot print, a sensitive indicator of normal motor function in the foot itself. […] In contrast, rats treated with 4-AP show normal behavior beginning 10 days post-injury, and this behavior is maintained when drug treatment ends at day 14. All improvements were durable when treatment was stopped at 2 weeks post-injury.

[2] = tested on: glial fibrillary acidic protein (GFAP); test: GFAP labeling (scarring marker) in spinal cord sections after contusion injury; format: in vivo; conditions: rats with spinal cord contusion, compared with saline
Excerpt: FIG. 6A and FIG. 6B are images illustrating a section of spinal cords of placebo (saline) (FIG. 6A) and 4-AP (FIG. 6B) treated animals labeled with antibody against glial fibrillary acidic protein (GFAP), which is a marker of scarring in all regions of the central nervous system, (bright spots in FIG. 6A) and DAPI (bright spots in FIG. 6B). indicates the lesion edge. The size bar represents 100 μm. […] These outcomes provide further evidence that 4-AP administration is regulating a response to traumatic injury that is of relevance to traumatic injury in all tissues.
FIGS. 6A-6B further examines expression of a protein called glial fibrillary acidic protein (GFAP), which is one of the markers of scarring in all regions of the central nervous system. […] These outcomes provide further evidence that 4-AP administration is regulating a response to traumatic injury that is of relevance to traumatic injury in all tissues.

sciatic nerve crush = test: Electron microscopy of sciatic nerve after crush injury with local 4-AP PLGA films; format: in vivo
Excerpt: A comparison of the axonal area of randomly chosen individual axons of vehicle treated and 4-AP treated mice (n=4 for each experimental group; 40 axons analyzed per mouse) is shown. […] (**: p<0.01; ANOVA).
In the experiment below, mice received crush injuries to the sciatic nerve and then a sustained release formulation of 4-AP in a PLGA formulation (4-AP films) was applied locally at the site of injury. At the time that nerve conduction velocity began to recover, nerves were isolated and studied by electron microscopy. […] In uninjured myelinated axons, the average area of a myelinated axon (excluding the myelin) was 11.2+/−1.3 μm^2. In injured nerves treated with PLGA film only, the average area of myelinated axons decreased to 5.7+/−0.2 μm^2 (FIG. 9A). In nerves treated with 4-AP-containing films, the average area of myelinated axons was 6.7+/−0.4 μm^2 (p<0.05 versus mice treated only with film). In addition, the proportion of axons with areas above the average value for uninjured nerves was 5+/−3% in injured nerves treated with vehicle alone but increased to 15+/−2% in nerves treated with 4-AP containing films (p<0.05).
On day 21 after injury, the average thickness of the myelin within the injured area was 0.53+/−0.03 μm but was 0.95+/−0.14 μm with localized 4-AP administration (p<0.01), as compared with an average myelin thickness in uninjured nerves of 1.26+/−0.08 μm. […] The myelin area was also measured (FIG. 9C, D) and it was determined that the average cross-sectional area of myelin per myelinated large axon in uninjured nerve was 14.8+/−1.7 μm^2, 4.9+/−0.3 μm^2 in injured nerve, and was restored to 10.1+/−0.7 μm^2 with localized 4-AP administration (p<0.01). In 4-AP treated mice, 21.2+/−9.3% of axons had myelin areas that were above the average for uninjured nerve, while this value in vehicle-treated mice was only 1.9+/−1.4%.
The benefits of treatment were also observed by analysis of the ratio of the area of the axon to the area of the axon plus associated myelin. This g^area ratio, a variant of the usually employed g-ratio, was calculated due to the decreased circularity in injured nerve. […] However, with local 4-AP treatment, the g^area-ratio was in the normal range of 0.43+/−0.09 (p<0.01) (FIG. 9D).
The number of total myelinated axons per TEM grid examined (2310 μm^2) was 82+/−5 axons in undamaged nerve, as compared with 55+/−4 axons in injured vehicle-treated mice and 71+/−4 axons in 4-AP treated mice (p<0.01 for vehicle-treated vs. 4-AP treated mice).

P-zero myelin protein = test: P0 myelin protein in tissue lysates after sciatic nerve crush; format: in vivo; conditions: mice, tissue lysates at 21 days post-injury/treatment
skeletal muscle atrophy = test: Skeletal muscle atrophy after sciatic nerve crush injury; format: in vivo, mouse
Excerpt: FIGS. 10A-10F show the rescue of skeletal muscle from atrophy induced by crush injury to the sciatic nerve by daily administration of clinically relevant dosages of 4-AP.
These stem cells are believed to play roles in preventing and/or repairing muscle atrophy.
In particular, 4-AP was applied as a means of preventing skeletal muscle atrophy following damage to the nerve innervating muscles of limb, as illustrated in FIG. 10. In these experiments, the sciatic nerve of the mouse was crushed in such a manner that not all axons were severed. In these injuries, skeletal muscle atrophy is a significant consequence, just as it is in patients with similar injuries. This type of injury can be a problem for many reasons, including the fact that if atrophy is not stopped or reversed within a relatively short period of time, the damage done may become irreversible.

[3] = spinal cord contusion, 1 mg/kg 4-AP for 14 days, maintained after treatment ends at day 14
[4] = mice, localized 4-AP (PLGA films)
[5] = mouse, sciatic nerve crush injury

Nc1ccncc1 [4-AP, 4-aminopyridine]
Basso, Beattie and Bresnahan (BBB) scores, recovery versus placebo (saline) ([1]; 200 kilodyne contusion at thoracic vertebrae 9, 1 mg/kg 4-AP twice a day for seven days then seven further days, started 24 hours after surgery): significant improvement over placebo (saline) treated rats as early as 3 days after treatment | length of the foot print: normal behavior beginning [1, 3]: 10 days post-injury | toe spread (distance between the outer toes): normal behavior beginning [1, 3]: 10 days post-injury | return to normal swing speed (stride length/swing time) ([1]; spinal cord contusion, 1 mg/kg 4-AP for 14 days, normal defined by sham surgery group, maintained after treatment ends at day 14): ≤ 10 days post-injury | motor function after treatment was stopped 14 days after injury ([1]; spinal cord contusion, 1 mg/kg 4-AP for 14 days, through the rest of the 28 days of analysis): durable improvements in motor function | GFAP, marker of central nervous system scarring [2]: greatly decreased | myelinated axons with a g^area-ratio less than the average for uninjured mice (sciatic nerve crush; 21 days after injury): 54.4+/−18.5% | average g^area-ratio (area of the axon to area of the axon plus associated myelin) (sciatic nerve crush; mice, 21 days after injury, local 4-AP treatment): 0.43+/−0.09 | number of total myelinated axons per TEM grid examined (2310 μm^2) (sciatic nerve crush; mice, 21 days post injury): 71+/−4 axons | axons with myelin thickness above the average for uninjured nerve (sciatic nerve crush; mice, day 21, localized 4-AP (PLGA films)): 21.4+/−10.8% | average thickness of the myelin within the injured area (sciatic nerve crush; mice, day 21 after injury, localized 4-AP (PLGA films)): 0.95+/−0.14 μm | average cross-sectional area of myelin per myelinated large axon (sciatic nerve crush; [4]): 10.1+/−0.7 μm^2 | axons with myelin areas above the average for uninjured nerve (sciatic nerve crush; [4]): 21.2+/−9.3% | more P0 protein in the lesion area than in nerves of vehicle-treated animals (P-zero myelin protein): 61+/−15% | numbers of Pax7+ muscle stem cells (skeletal muscle atrophy; both at 7 days and 14 days post nerve crush injury): increased the numbers of Pax7+ cells | muscle strength (skeletal muscle atrophy; mice, 7 days after nerve crush injury, daily 4-AP): greater muscle strength as compared with saline-treated mice | expression of MuRF-1 in muscle (skeletal muscle atrophy; [5]): decreases expression of MuRF-1 | expression of myogenin in muscle (skeletal muscle atrophy; [5]): decreases expression of myogenin | muscle atrophy judged by cross-sectional size of muscle (skeletal muscle atrophy; mouse, sciatic nerve crush injury, daily 4-AP): decreases muscle atrophy
